According to PMC11505911, “Design and Synthesis of Small Molecule Probes of MDA-9/Syntenin” (Biomolecules, 2024):
Values joined by “and” are separate entries in the source; they are usually repeats but may differ in a detail not shown here. Equal values may be shown once. Read-outs that look alike come from different tables or passages of the source.

Legend:
[1] = target: T1, MDA-9/Syntenin (Homo sapiens, UniProt O00560); set-up: method as in printed; conditions: pre-PDZ1i molecules studied en route to the discovery of PDZ1i; ref not given; cited from earlier work
T1 construct: made in house
T1 sequence (O00560 1-298): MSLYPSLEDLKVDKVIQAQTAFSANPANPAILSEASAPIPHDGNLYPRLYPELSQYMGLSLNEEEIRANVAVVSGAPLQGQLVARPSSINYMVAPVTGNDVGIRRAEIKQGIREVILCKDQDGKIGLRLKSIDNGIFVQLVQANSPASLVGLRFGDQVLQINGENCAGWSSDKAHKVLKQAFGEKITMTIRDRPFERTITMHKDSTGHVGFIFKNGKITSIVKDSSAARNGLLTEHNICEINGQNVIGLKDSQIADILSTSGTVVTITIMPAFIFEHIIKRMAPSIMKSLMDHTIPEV

[2] = target: T1, MDA-9/Syntenin; experiment: Fluorescence polarization titration of ligands into MDA-9/Syntenin; assay type: binding; conditions: 20 mM Tris-HCl, 100 mM NaCl, 0.01% PEG800, 0.05% Tween20, pH 7.4; single-site fit; minimum of two titrations
Procedure: Spectrofluorimetric titrations were performed on a Horiba QM400 spectrometer (HORIBA Scientific, Piscataway, NJ, USA). Excitation and emission wavelengths of 280 nm and 340 nm (600 nm for the reference emission wavelength) were used, with 5 nm excitation and 12 nm emission band widths, as described earlier. Experiments were performed in ratiometric mode, with excitation and emission polarizers set to 0,0 angles at room temperature. The titration buffer was 20 mM Tris-HCl buffer, pH 7.4. The stock concentrations of protein and ligands were 40 and 300–1000 μM, respectively. Whereas the protein was prepared in the titration buffer, the ligands were prepared in DMSO. The ligands (either URD001, NGI03, or NVS125) were titrated into the protein solution in aliquots, and saturable changes in fluorescence polarization were used to calculate the affinity. […] The emission intensities were corrected for dilution effects (<10% overall). The observed change in fluorescence polarization relative to initial signal (F0) was fitted using a standard single-site binding model to obtain the dissociation constant (KD) and the maximal change in fluorescence polarization (ΔF) at saturation.
We then explored fluorescence polarization (λEX = 280 nm, λEM = 340 nm; λREF = 600 nm) in 20 mM Tris-HCl containing 100 mM NaCl, 0.01% PEG800, and 0.05% Tween20, pH 7.4. Polarization relies on the change in molecular diffusion of the protein in the presence of a ligand as a probe of interaction. This technique worked well for PDZ1i, which presented a classic hyperbolic binding profile. […] For NGI03 and URD001, KDs of 1.1 and 3.0 μM, respectively, were measured. […] This implies that no reliable fit of the data could be obtained. Yet, based on the profile, the KD is likely to be more than 200 μM.

[3] = set-up: method as in printed; conditions: stated in introduction; ref not given; cited from earlier work
[4] = target: T1, MDA-9/Syntenin; conditions: cited from earlier work
[5] = Aqueous solubility (qualitative); assay type: physicochemical; conditions: authors' observation

| Compound | IC50 [1] [µM] | other results |
| --- | --- | --- |
| Cc1cc(=O)n2nc(C(=O)Nc3ccc(O)c(F)c3)nc2[nH]1 [112G2] | 147 |  |
| Nc1ccc(NC(=O)c2nc3[nH]c4c(c(=O)n3n2)CCC4)cc1 [112G11] | 263 |  |
| Cc1cc(NC(=O)c2nc3[nH]c4c(c(=O)n3n2)CCC4)c(C)cc1NC(=O)CCc1nnc(-c2ccccc2)o1 [PDZ1i] |  | Kd [2]: 78 µM and ~78 µM; aqueous solubility [3]: poor aqueous solubility; Kd ([4]; binding domain PDZ1): 60 to 70 µM |
| Neurexin hexapeptide: hexapeptide epitope from neurexin binding the PDZ2 domain (TNEYYV) |  | Kd ([4]; binding domain PDZ2): 100 µM |
| Ephrin hexapeptide: hexapeptide epitope from ephrin B binding the PDZ2 domain (NIYYKV; Paralogue and species inferred; terminal caps unknown) |  | Kd ([4]; binding domain PDZ2): 790 µM |
| Cc1cc(NC(=O)c2nc3[nH]c4c(c(=O)n3n2)CCC4)c(C)cc1CCCC(c1nnc(-c2ccccc2)o1)c1nnc(-c2ccccc2)o1 [URD001, N-(4-(4,4-bis(5-phenyl-1,3,4-oxadiazol-2-yl)butyl)-2,5-dimethylphenyl)-8-oxo-5,6,7,8-tetrahydro-4H-cyclopenta[d][1,2,4]triazolo [1,5-a]pyrimidine-2-carboxamide] |  | Kd [2]: 3 µM; aqueous solubility [5]: aqueous solubility issues |
| O=C(Nc1ccc(O)c(Cl)c1)c1nc2[nH]c3c(c(=O)n2n1)CCC3 [112G3] | 119 |  |
| Cc1cc(NC(=O)c2nc3[nH]c4c(c(=O)n3n2)CCC4)c(C)cc1NC(=O)CC(c1nnc(-c2ccccc2)o1)c1nnc(-c2ccccc2)o1 [NGI03, N-(4-(3,3-bis(5-phenyl-1,3,4-oxadiazol-2-yl)propanamido)-2,5-dimethylphenyl)-8-oxo-5,6,7,8-tetrahydro-4H-cyclopenta[d][1,2,4]triazolo[1,5-a]pyrimidine-2-carboxamide] |  | Kd [2]: 1.1 µM; aqueous solubility [5]: aqueous solubility issues |
| Cc1cc(NC(=O)OC(C)(C)C)c(C)cc1CCCC(c1nnc(-c2ccccc2)o1)c1nnc(-c2ccccc2)o1 [CMPD10] | 151 |  |
| O=C(Nc1ccc(O)cc1)c1nc2[nH]c3c(c(=O)n2n1)CCC3 [112E12] | 1610 |  |
| Cc1cc(=O)n2nc(COc3ccccc3)nc2[nH]1 [30A9] | 197 |  |
| O=C(Nc1ccc(O)c(F)c1)c1nc2[nH]c3c(c(=O)n2n1)CCC3 [112F12] | 166 |  |
| Cc1cc(=O)n2nc(C(=O)Nc3cc(Cl)c(N)c(Cl)c3)nc2[nH]1 [112G4] | 34.3 |  |
| Cc1cc(=O)n2nc(C(=O)Nc3ccc(N)cc3)nc2[nH]1 [112E7] | 944 |  |
| Cc1c(C)c(NC(=O)c2nc3[nH]c4c(c(=O)n3n2)CCC4)c(C)c(C)c1N [113B8] | 151 |  |
| Cc1cc(=O)n2nc(C(=O)Nc3cc(Cl)c(O)c(Cl)c3)nc2[nH]1 [112G1] | 57.3 |  |
| Cc1cc(=O)n2nc(C(=O)Nc3ccc(O)cc3)nc2[nH]1 [112D11] | 245 |  |
| IVMT-Rx-3: polyethylene glycol conjugation from truncated PDZ1i with a PDZ2-binding hexapeptide (TNEYYF) |  | Kd ([4]; binding domain PDZ1, PDZ2): 63 µM |
| Cc1ccc(-c2nnc(CCC(=O)Cc3cc(C)c(C(=O)O)cc3C)o2)cc1 [NVS125] |  | Kd [2]: > 200 µM; aqueous solubility [5]: good aqueous solubility |
